# Data from patent publication US11351178B2, “Selective HDAC6 inhibitors” (ITALFARMACO S.P.A., priority 2017, dated 2022).
# Experiments:
# [1] = Stability to Phase I metabolism in rat S9 liver fraction; format: in vitro ADME; conditions: after 90 min, 37° C.
# Description: Test compounds were incubated in rat and human liver S9 fraction at 37° C. up to 90 minutes in order to evaluate their stability to Phase I metabolism by hepatic enzymes. […] The reaction was stopped placing samples on ice bath and adding acidified acetonitrile. After centrifugation (10 minutes at 14000 rpm) an aliquot of the supernatant was diluted water, filtered with 0.45 μm regenerated cellulose syringe filters and injected in HPLC-UV or in LC-MS/MS. The percentages of the amount remaining at the various incubation times with respect to the initial amount were calculated. The intrinsic clearance was also calculated.
# [2] = Stability in rat plasma; format: in vitro ADME; conditions: after 4 hours, 37° C.
# Description: In order to evaluate the stability to circulating enzymes, test compounds were incubated in human and rat plasma at 37° C. in a thermostated oscillating bath. Each test compound was incubated at μM (50 μM when the samples were analysed by UV/HPLC, 1 or 2 μM when the samples were analysed by LC-MS/MS) concentration for 0, 15, 30 min and 1, 2 and 4 hours. The reaction was stopped placing tubes on ice bath and adding acidified acetonitrile. After centrifugation for 10 minutes at 14000 rpm, an aliquot of the supernatant was diluted with water, filtered with 0.45 μm syringe filters and injected in HPLC-UV or in LC-MS/MS. The percentages of amount remaining at the various times of incubation with respect to initial amount were calculated. The half-life in plasma was also calculated.
# [3] = biological target: T1, recombinant human HDAC6 (Homo sapiens, UniProt Q9UBN7); assay: Enzymatic screening on recombinant human HDAC6; format: biochemical; conditions: Table 2; read-out: HDAC6 IC50
# T1 sequence (Q9UBN7 1-1215): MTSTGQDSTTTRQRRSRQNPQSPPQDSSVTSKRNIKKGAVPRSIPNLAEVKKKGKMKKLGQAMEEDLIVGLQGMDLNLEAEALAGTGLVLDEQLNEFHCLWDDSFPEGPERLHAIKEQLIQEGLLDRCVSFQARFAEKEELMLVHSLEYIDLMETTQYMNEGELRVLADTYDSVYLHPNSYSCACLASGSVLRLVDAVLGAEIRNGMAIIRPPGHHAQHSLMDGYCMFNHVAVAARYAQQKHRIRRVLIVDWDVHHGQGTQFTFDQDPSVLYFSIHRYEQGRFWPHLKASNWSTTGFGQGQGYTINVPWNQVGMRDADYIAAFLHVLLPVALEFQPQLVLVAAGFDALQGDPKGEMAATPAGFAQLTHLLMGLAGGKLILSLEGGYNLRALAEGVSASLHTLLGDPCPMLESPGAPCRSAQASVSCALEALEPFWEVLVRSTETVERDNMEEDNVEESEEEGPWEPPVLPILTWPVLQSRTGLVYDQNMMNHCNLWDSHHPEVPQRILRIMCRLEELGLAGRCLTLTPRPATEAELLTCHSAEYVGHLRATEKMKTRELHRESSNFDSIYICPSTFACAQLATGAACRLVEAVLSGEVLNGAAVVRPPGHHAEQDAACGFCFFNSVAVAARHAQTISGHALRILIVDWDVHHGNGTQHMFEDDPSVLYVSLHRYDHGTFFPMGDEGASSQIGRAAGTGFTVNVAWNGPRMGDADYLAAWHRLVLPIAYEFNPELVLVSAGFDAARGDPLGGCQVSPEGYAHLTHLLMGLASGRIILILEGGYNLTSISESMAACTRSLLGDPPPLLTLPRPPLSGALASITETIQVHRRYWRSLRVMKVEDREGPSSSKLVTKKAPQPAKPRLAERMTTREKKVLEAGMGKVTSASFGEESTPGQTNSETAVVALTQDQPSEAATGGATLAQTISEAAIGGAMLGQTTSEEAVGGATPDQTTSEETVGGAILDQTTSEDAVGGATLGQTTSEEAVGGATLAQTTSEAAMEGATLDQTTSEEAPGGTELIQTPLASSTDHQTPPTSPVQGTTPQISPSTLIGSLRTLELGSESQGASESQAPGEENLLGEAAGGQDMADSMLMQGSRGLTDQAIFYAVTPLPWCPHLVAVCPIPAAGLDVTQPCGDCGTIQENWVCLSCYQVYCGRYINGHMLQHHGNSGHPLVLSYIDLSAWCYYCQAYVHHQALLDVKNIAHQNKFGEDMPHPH
# Description: Enzymatic activity on recombinant human HDAC6 and HDAC3 was evaluated (Table 2) for each synthesized compound.
# After a period of incubation at 30° C. (incubation times vary for different isoforms and are shown in table 1) 25 μL of solution containing the substrate were added. As substrate, FLUOR DE LYS® deacetylase substrate (Enzo Life Sciences, cat #BML-K1104, FdL), FLUOR DE LYS®-Green substrate (Enzo Life Sciences, cat #BML-K1572 FdL_G) and trifluoroacetyl-L-lysine (Tfal)-2× concentrated solution in 25 mM Tris-HCl, pH 8, 130 mM NaCl 0.05% Tween-20 10% glycerol) were used. Following a reaction period at 30° C.
residual percentage in rat S9 fraction [1],residual percentage in rat plasma [2],IC50 [3],Compound
65%,78%,25 nM,"O=C(NO)c1cc(F)c(Sc2nnc(N3CCCC3)n2Cc2ccco2)c(F)c1 [comp. 116, 3,5-difluoro-4-[[4-(2-furylmethyl)-5-pyrrolidin-1-yl-1,2,4-triazol-3-yl]sulfanyl]benzenecarbohydroxamic acid]"
91%,76%,25 nM,"Cn1c(Sc2c(F)cc(C(=O)NO)cc2F)nnc1-c1cccnc1 [comp. 153, 3,5-difluoro-4-[[4-methyl-5-(3-pyridyl)-1,2,4-triazol-3-yl]sulfanyl]benzenecarbohydroxamic acid]"
88%,82%,17 nM,"O=C(NO)c1cc(F)c(Sc2nnc(N3CCOCC3)n2Cc2ccccc2)c(F)c1 [comp. 117, 4-[(4-benzyl-5-morpholino-1,2,4-triazol-3-yl)sulfanyl]-3,5-difluoro-benzenecarbohydroxamic acid]"
16%,82%,33 nM,"Cn1c(Sc2c(F)cc(C(=O)NO)cc2F)nnc1C1(c2cccc(F)c2)CCCC1 [comp. 102, 3,5-difluoro-4-[[5-[1-(3-fluorophenyl)cyclopentyl]-4-methyl-1,2,4-triazol-3-yl]sulfanyl]benzenecarbohydroxamic acid]"
52%,100%,14 nM,"Cc1nc2ccc(F)cc2cc1-c1nnc(Sc2c(F)cc(C(=O)NO)cc2F)n1C [comp. 137, 3,5-difluoro-4-[[5-(6-fluoro-2-methyl-3-quinolyl)-4-methyl-1,2,4-triazol-3-yl]sulfanyl]benzenecarbohydroxamic acid]"
5%,79%,56 nM,"COc1ccc(C2(c3nnc(Sc4c(F)cc(C(=O)NO)cc4F)n3C)CCCCC2)cc1 [comp. 103, 3,5-difluoro-4-[[5-[1-(4-methoxyphenyl)cyclohexyl]-4-methyl-1,2,4-triazol-3-yl]sulfanyl]benzenecarbohydroxamic acid]"
57%,73%,122 nM,"O=C(NO)c1cc(F)c(Sc2nnc(CN3CCCCC3)n2-c2ccc(F)cc2)c(F)c1 [comp. 115, 3,5-difluoro-4-[[4-(4-fluorophenyl)-5-(1-piperidylmethyl)-1,2,4-triazol-3-yl]sulfanyl]benzenecarbohydroxamic acid]"

# The next lines start with the compound.
Compound,residual percentage in rat S9 fraction [1],residual percentage in rat plasma [2],IC50 [3]
"COc1ccc(Cc2nnc(Cc3ccc(C(=O)NO)cc3)o2)cc1OC [comp. 45, 4-[[5-[(3,4-dimethoxyphenyl)methyl]-1,3,4-oxadiazol-2-yl]methyl]benzenecarbohydroxamic acid]",69%,81%,68 nM
"O=C(NO)c1ccc(Sc2nnc(-c3c[nH]c4ccccc34)n2Cc2ccco2)cc1 [comp. 25, 4-[[4-(2-furylmethyl)-5-(1H-indol-3-yl)-1,2,4-triazol-3-yl]sulfanyl]benzenecarbohydroxamic acid;2,2,2-trifluoroacetic acid]",9%,77%,47 nM
"COc1ccc(-c2nnnn2Cc2ccc(C(=O)NO)cc2)cc1OCc1ccccc1 [comp. 71, 4-[[5-(3-benzyloxy-4-methoxy-phenyl)tetrazol-1-yl]methyl]benzenecarbohydroxamic acid]",58%,4%,52 nM
"O=C(NO)c1cc(F)c(Sc2nnc(-c3cnccn3)n2Cc2ccco2)c(F)c1 [comp. 139, 3,5-difluoro-4-[[4-(2-furylmethyl)-5-pyrazin-2-yl-1,2,4-triazol-3-yl]sulfanyl]benzenecarbohydroxamic acid]",40%,90%,18 nM
"O=C(NO)c1ccc(Cn2nnc(-c3ccccn3)n2)cc1 [comp. 89, 4-[[5-(2-pyridyl)tetrazol-2-yl]methyl]benzenecarbohydroxamic acid]",97%,70%,9 nM
"O=C(NO)c1ccc(Cn2nnc(Cc3ccccc3)n2)cc1 [comp. 36, 4-[(5-benzyltetrazol-2-yl)methyl]benzenecarbohydroxamic acid]",38%,60%,52 nM
"Cn1c(Sc2ccc(C(=O)NO)cc2)nnc1C1COc2ccccc2O1 (stereo not drawn) [comp. 83, 4-[[5-(2,3-dihydro-1,4-benzodioxin-3-yl)-4-methyl-1,2,4-triazol-3-yl]sulfanyl]benzenecarbohydroxamic acid]",92%,76%,22 nM
"O=C(NO)c1ccc(Sc2nnc(-c3ccc(F)cc3)[nH]2)cc1 [comp. 29, 4-[[5-(4-fluorophenyl)-4H-1,2,4-triazol-3-yl]sulfanyl]benzenecarbohydroxamic acid]",74%,103%,19 nM
"O=C(NO)c1ccc(Cn2nnnc2Cc2ccccc2)cc1 [comp. 37, 4-[(5-benzyltetrazol-1-yl)methyl]benzenecarbohydroxamic acid]",82%,6%,212 nM
"O=C(NO)c1cc(F)c(Cn2nnnc2-c2cccc(S(F)(F)(F)(F)F)c2)c(F)c1 [comp. 109, 3,5-difluoro-4-[[5-[3-(pentafluoro-lambda6-sulfanyl)phenyl]tetrazol-1-yl]methyl]benzenecarbohydroxamic acid]",72%,10%,35 nM
"Cc1ccsc1-c1nnn(Cc2ccc(C(=O)NO)cc2)n1 [comp. 39, 4-[[5-(3-methyl-2-thienyl)tetrazol-2-yl]methyl]benzenecarbohydroxamic acid]",0%,63%,3 nM
"O=C(NO)c1cc(F)c(Sc2nnc(-c3ccccc3F)n2Cc2ccco2)c(F)c1 [comp. 145, 3,5-difluoro-4-[[5-(2-fluorophenyl)-4-(2-furylmethyl)-1,2,4-triazol-3-yl]sulfanyl]benzenecarbohydroxamic acid]",7%,79%,16 nM
"O=C(NO)c1ccc(Cn2nnc(-c3ccc(S(F)(F)(F)(F)F)cc3)n2)cc1 [comp. 110, 4-[[5-[4-(pentafluoro-lambda6-sulfanyl)phenyl]tetrazol-2-yl]methyl]benzenecarbohydroxamic acid]",16%,92%,25 nM
